For experiment [1], the system named is human melanoma cells (MeWo, MeWo-LM2, A375-LM3, HT-144, SK-Mel-334.2). The experiment in a line: tail-vein lung metastatic colonization assay. The conditions noted are these: for reduction in lung metastatic colonization by MeWo cells: orally administered, immunocompromised mice. In kind it is in vivo, mouse. As to the method:
After 8 hours, the transfection media was replaced with fresh media. After 48 hours, 1×10^5 cells were injected intravenously into NOD-SCID mice to assess lung metastatic colonization or through intracardiac injection into athymic nude mice to assess systemic metastasis. For cell invasion and endothelial recruitment in vitro assays, the cells were used 96 hours post-transfection.
Melanoma cells used for in vivo metastasis assays were transduced with a stably expressed retroviral construct encoding a luciferase reporter gene (Ponomarev et al., 2004), allowing us to monitor the in vivo progression of melanoma cells by bioluminescence imaging. The following numbers of melanoma cells, resuspended in 100 μL of PBS, were injected intravenously via the tail-vein: 4×10^4 MeWo cells, 2.5×10^5 HT-144 cells, 2×10^5 SK-Mel-334.2 cells, 5×10^4B 16F10 cells, and 1×10^5YUMM cells. The MeWo, HT-144, and SK-Mel-334.2 cells were injected into 6-8 week-old sex-matched NOD scid mice, while the B16F10 and YUMM cells were injected into 6-8 week-old sex-matched C57BL/6 mice. In all experiments assessing at the effects of GW3965 on metastasis formation, mice were pre-treated on a control diet or a GW3965-supplemented diet (20 mg/kg) for 10 days. To assess the effect of GW3965 treatment on brain metastasis, 1×10^5 MeWo brain-metastatic derivatives were injected intracardially into athymic nude mice. Immediately following injection, mice were randomly assigned to a control diet or GW3965-supplemented diet (100 mg/kg). To determine whether oral delivery of GW3965 can inhibit the progression of incipient metastasis, NOD Scid mice were intravenously injected with 4×10^4MeWo cells and the cells were allowed to colonize the lungs for 42 days, after which mice were blindedly assigned to a control diet or a GW3965-supplemented diet (100 mg/kg) treatment.

The test system of experiment [2] is endothelial cells (HUVEC) recruited by human melanoma cells. The experiment can be described thus: trans-well endothelial recruitment assay. In kind it is cell-based. As to conditions: for ability of melanoma cells to recruit endothelial cells: MeWo, HT-144, SK-Mel-2, SK-Mel-334.2, 1 μM for 72 hours. As to the method: 5×10^4 cancer cells were seeded into 24-well plates approximately 24 hours prior to the start of the assay. HUVEC's were grown to 80% confluency and serum starved in EGM-2 media supplemented with 0.2% FBS for 16 hours. HUVEC's were then pulsed with Cell Tracker Red CMTPX dye (C34552, Invitrogen) for 45 minutes. Meanwhile, cancer cells were washed with PBS, 0.5 mL of 0.2% FBS EGM-2 media was added to each well, and a 3.0 μm HTS Fluoroblock insert (351151, BD Falcon, San Jose, Calif.) was placed into each well. 1×10^5 HUVEC's, resuspended in 0.5 mL of starvation media, were seeded into each trans-well insert, and the recruitment assay was allowed to proceed for 16-18 hours at 37° C. For neutralization antibody and/or recombinant protein experiments, antibody/protein was then added to each well at the appropriate concentration as indicated in the figures: 40 μg/mL anti-ApoE 1D7, 40 μg/mL anti-IgG, 100 μM rhApoE3, and 100 μM BSA. Upon completion of the assay, the inserts were processed and analyzed as described for the matrigel invasion assay above (See Matrigel Invasion Assay).
The endothelial recruitment assay was carried out as previously described (Pencheva et al., 2012; Png et al., 2012). Melanoma cells were treated with DMSO, GW3965, T0901317, or Bexarotene at 1 μM for 56 hours, after which 5×10^4 cells were seeded in a 24-well plate in the presence of each drug and allowed to attach for 16 hours prior to starting the assay. HUVEC cells were serum-starved overnight in EGM-2 media containing 0.2% FBS. The following day, 1×10^5 HUVEC cells were seeded into a 3.0 μm HTS Fluoroblock trans-well migration insert (351151, BD Falcon, San Jose, Calif.) fitted into each well containing cancer cells at the bottom. The HUVEC cells were allowed to migrate towards the cancer cells for 20 hours at 37° C., after which the inserts were processed as previously described (Pencheva et al., 2012). For ApoE antibody neutralization experiments, 40 μg/mL 1D7 anti-ApoE blocking antibody (Heart Institute, University of Ottawa, Ottawa, Canada) or 40 μg/mL anti-IgG control antibody (AB-108-C, R&D Systems, Minneapolis, Minn.) was added to each trans-well insert at the start of the assay.
Subsequently, 5×10^4 cancer cells were seeded into 24-well plates in the presence of each drug or DMSO and allowed to attach for 16 hours prior to starting the assay. Human umbilical vein endothelial cells (HUVEC cells) were serum-starved in 0.2% FBS-containing media overnight. The following day, 1×10^5 HUVEC cells were seeded into a 3.0 μm HTS Fluoroblock insert (351151, BD Falcon) fitted into each well containing the cancer cells at the bottom. The HUVEC cells were allowed to migrate towards the cancer cells for 20 hours, after which the inserts were washed in PBS, fixed in 4% PFA, labeled with DAPI, and mounted on slides. The basal side of each insert was imaged using an inverted fluorescence microscope (Zeiss Axiovert 40 CFL) at 5× magnification, and the number of DAPI-positive cells was quantified using ImageJ.

Structures can show the parent of a compound that is named as a salt.

Regarding `O=C(O)Cc1cccc(OCCCN(Cc2cccc(C(F)(F)F)c2Cl)CC(c2ccccc2)c2ccccc2)c1` [GW3965 2, 3-[3-[N-(2-Chloro-3-trifluoromethylbenzyl)-(2,2-diphenylethyl)amino]propyloxy] phenylacetic acid hydrochloride], the “reduction in metastatic colonization capacity of pre-treated cells” value in experiment [1] (MeWo cells pre-treated 1 μM for 48 hours) is “more than 50 fold”. In experiment [1] (chow 20 mg/kg), the “survival times following metastatic colonization” value is “significantly prolonged” and the “reduction in lung metastatic colonization by MeWo cells” value was found to be 31 fold. Moreover, the “in vivo melanoma metastasis (lung, bioluminescence)” value in experiment [1] (chow diet 20 mg/kg, tail-vein injection of parental MeWo cells) is reported as “significant reduction”. For the same molecule, in experiment [1] (diet 20 mg/kg), the “metastatic colonization by HT-144 and SK-Mel-334.2 lines” value is on record as “suppressed”. Also, the “suppression of colonization by incipient lung metastases” value in experiment [1] (diet 100 mg/kg from d42) was 28 fold. The “number of macroscopic metastatic nodules formed” value in experiment [1] (diet 100 mg/kg, d77) was “decreased”. In addition, the “ability of melanoma cells to recruit endothelial cells” value in experiment [2] was “consistently suppressed”. Further, in experiment [2] (parental MeWo cells pre-treated for 48 hours), the endothelial recruitment result is listed as “decreased”.

With `O=S(=O)(c1ccccc1)N(CC(F)(F)F)c1ccc(C(O)(C(F)(F)F)C(F)(F)F)cc1` [T0901317 1], in experiment [1] (chow 20 mg/kg), the “reduction in lung metastatic colonization by MeWo cells” value came out at 23 fold. The “ability of melanoma cells to recruit endothelial cells” value in experiment [2] is listed as “consistently suppressed”.

“recombinant ApoE3: recombinant human ApoE3 (4696, BioVision)”: in experiment [1] (MeWo-LM2 cells pre-incubated for 24 hours at 100 μg/mL before injection), the “suppression of metastatic colonization” value was “over 300 fold”. In addition, in experiment [2] (100 μM added to cell media), the “endothelial recruitment by metastatic LM2 cells” value was “significantly suppressed”. Also, the “ability of pre-treated endothelial cells to migrate towards highly metastatic cancer cells” value in experiment [2] (endothelial cells pre-incubated 100 μM, 24 hours, LM2 cells) is “significantly reduced”.
